Experimental data from article PMC5429698, “Biochemical analysis of leishmanial and human GDP-Mannose Pyrophosphorylases and selection of inhibitors as new leads” (Scientific Reports, 2017).
Several values for one entry are separate records, joined by “and”; a condition that tells them apart may be missing. Equal entries are not always repeated. Where two headings read alike, the source gives them in different places.

Assays:
LmGDP-MP = LmGDP-MP (Leishmania mexicana, UniProt E9AW11); experiment: biochemical; format: biochemical
Procedure: (§1) GDP-MP catalyzes the following reaction: Man‐1‐P+GTP→GDP−Mannose+Pyrophosphate The reaction media were buffered at pH optima and contained optimal concentrations of Man-1-P, GTP, GDP-MP and Mg^2+ determined for each purified GDP-MP (Fig. 2d), supplemented with DTT (1 mM). Inorganic pyrophosphatase, which hydrolyses the inorganic pyrophosphates generated by the GDP-MPs in inorganic phosphates, was added at 0.1 U/ml (Sigma-Aldrich). Inorganic pyrophosphatase was added in excess to the reaction medium in order to minimize the probability that the putative inhibitors of GDP-MPs interfere with this enzyme. The reaction was initiated by the addition of GDP-MP, and was stopped after adding 100 µl of revelation buffer containing malachite green (0.03% w/v), ammonium molybdate (0.2% w/v) and Triton X-100 (0.05% v/v) in HCl (0.7 M) for 5 min at the optimal temperature. The quantity of inorganic phosphate generated, representing GDP-MP activity, was determined by measuring OD650nm (Lab systems Multiskan MS). The molar extinction coefficient ε of the end product detected was determined by measuring OD650nm with a range of inorganic phosphate concentrations diluted in the revelation buffer and was calculated at 27207 M^−1 cm^−1 (Supplementary Fig. S2). The kinetic constants K m, V m and k cat were determined by non linear regression using GraphPad Prism 6.0.
(§2) Enzyme activity was measured as described above in the presence of 100 µM of compounds and the percentage of inhibition was calculated in reference to untreated enzyme. As a control, compounds were evaluated in parallel in the same conditions on inorganic pyrophosphatase alone in order to discard false-positives. […] Furthermore, no effect was observed on the activity of the three purified GDP-MPs with 1% DMSO, corresponding to the maximal solvent concentration used at 100 µM of compound. Compounds presenting a minimum of 50% inhibition on a leishmanial GDP-MP were subsequently selected to determine their type of inhibition and their K i values. Inhibition data were fitted to competitive, non-competitive or uncompetitive models of enzyme inhibition by non linear least squares regression analysis using GraphPad Prism 6.0.

[1] = test system: L. donovani axenic amastigotes; experiment: Antileishmanial evaluation on axenic amastigotes (resazurin); format: cell-based; conditions: 72 h treatment, 37 °C, read-out: IC50 (µM) ± SD L. donovani axenic amastigotes
Procedure: (§3) The evaluations of activity on axenic and intramacrophage amastigotes were adapted from the protocols previously described. Briefly, for the evaluation on axenic amastigotes, two fold serial dilutions of the compounds from a maximal concentration of 100 µM were performed in 100 µl of complete medium (see above) in 96-well microplates. Axenic amastigotes were then added to each well at a density of 10^6/ml in a 200 µl final volume. After 72 h of treatment at 37 °C for L. donovani or at 32 °C for L. mexicana with 5% CO2, 20 µl of resazurin (450 µM) was added to each well and further incubated in the dark for 24 h at 37 °C for L. donovani or at 32 °C for L. mexicana with 5% CO2. In living cells, resazurin is reduced in resorufin and this conversion is monitored by measuring OD570nm (resorufin) and OD600nm (resazurin; Lab systems Multiskan MS). The activity of the compounds was expressed as IC50. Miltefosine was used as the reference drug.

[2] = test system: L. mexicana axenic amastigotes; experiment: as above; format: cell-based; conditions: 72 h treatment, 32 °C, read-out: IC50 (µM) ± SD L. mexicana axenic amastigotes
Procedure: as §3

[3] = test system: L. donovani intramacrophage amastigotes in infected RAW.264.7 macrophages; experiment: Antileishmanial evaluation on intramacrophage amastigotes, RAW264.7 host; format: cell-based; conditions: for IC50: 48 h treatment, read-out: IC50 (µM) ± SD L. donovani infected RAW.264.7 macrophages
Procedure: (§4) Concerning the evaluation on intramacrophage amastigotes, RAW 264.7 macrophages (from ATCC) and bone marrow derived macrophages (BMDM) were plated in 96-well microplates at a density of 2 × 10^4 cells per well and incubated for 24 h at 37 °C with 5% CO2 for RAW264.7 cells or at 37 °C with 7% CO2 for BMDM. Axenic amastigotes were differenciated as described above, centrifuged at 2,000 g for 10 min, resuspended in DMEM complete medium, and added to each well to reach a 16:1 parasite to macrophage ratio. After 24 h of infection at 37 °C with 5% CO2 for RAW264.7 cells or at 37 °C with 7% CO2 for BMDM, extracellular parasites were removed, and DMEM complete medium (100 µl) containing two fold serial dilutions of the compounds from a maximal concentration of 100 µM was added to each well. After 48 h of treatment, the medium was removed and replaced by DirectPCR Lysis Reagent (100 µl; Euromedex) before 3 freeze-thaw cycles at room temperature, addition of 50 µg/ml proteinase K, and a final incubation at 55 °C overnight to allow cell lysis. 10 µl of each cell extract was then added to 40 µl of DirectPCR Lysis reagent containing Sybr Green I (0.05%; Invitrogen). DNA fluorescence was monitored using Mastercycler® realplex (Eppendorf). The activity of the compounds was expressed as IC50. Miltefosine was used as the reference drug.

[4] = test system: L. donovani intramacrophage amastigotes in infected BMDM; experiment: Antileishmanial evaluation on intramacrophage amastigotes, BMDM host; format: cell-based; conditions: for Selectivity index (CC50/IC50) L. donovani BMDM: CC50 BMDM / IC50 infected BMDM; for IC50: Leishmania donovani, BMDM, 48 h treatment, read-out: IC50 (µM) ± SD L. donovani infected BMDM
Procedure: as §4

[5] = test system: L. mexicana intramacrophage amastigotes in infected BMDM; experiment: microbe, parasite or virus in culture; format: cell-based; conditions: for Selectivity index (CC50/IC50) L. mexicana BMDM: CC50 BMDM / IC50 infected BMDM; for IC50: Leishmania mexicana, BMDM, 48 h, 48 h treatment, read-out: IC50 (µM) ± SD L. mexicana infected BMDM
Procedure: as §4

[6] = test system: L. mexicana intramacrophage amastigotes in infected RAW.264.7 macrophages; experiment: microbe, parasite or virus in culture; format: cell-based; conditions: for Selectivity index (CC50/IC50) L. mexicana RAW264.7 macrophages: CC50 RAW264.7 / IC50 infected RAW264.7; for IC50: 48 h treatment, read-out: IC50 (µM) ± SD L. mexicana infected RAW.264.7 macrophages
Procedure: as §4

Cytotoxicity (resazurin) [7] = format: cell-based; conditions: mouse, RAW264.7 macrophages; 48 h incubation; read-out: Cytotoxicity CC50 (µM) ± SD RAW264.7 macrophages
Procedure: (§5) Cells were plated in 96-well microplates at a density of 2 × 10^4 cells per well. After an incubation of 24 h at 37 °C with 5% CO2 for RAW264.7 cells or at 37 °C with 7% CO2 for BMDM, the medium was removed in each well, and 100 µl of DMEM complete medium containing two fold serial dilutions of the compounds was added to each well. […] Cell viability was then monitored as described above.

Cytotoxicity (resazurin) [8] = format: cell-based, Balb/c mice; conditions: Balb/c, mouse, bone marrow derived macrophages (BMDM); 48 h incubation; read-out: Cytotoxicity CC50 (µM) ± SD BMDM
Procedure: as §5

[9] = test system: inorganic pyrophosphatase; experiment: Control for false positives on inorganic pyrophosphatase alone; format: biochemical; conditions: compound at 100 µM, same conditions as the GDP-MP assay
Procedure: as §2

[10] = test system: leishmanial GDP-MP (LdGDP-MP and/or LmGDP-MP); experiment: Screen of the 100 compound library at 100 µM on purified leishmanial GDP-MPs; format: biochemical, Leishmania; conditions: compound at 100 µM
Procedure: as §1, §2

hGDP-MP = molecular target: T1, hGDP-MP (Homo sapiens, UniProt Q9Y5P6); experiment: GDP-MP enzymatic assay (malachite green) on purified hGDP-MP; format: biochemical
T1 construct: made in house; host or cells: E. coli BL21(DE3), co-transformed with chaperone plasmid pG-KJE3
Procedure: as §1, with “The reaction was initiated by the addition of GDP-MP, and was stopped after adding 100 µl of revelation buffer containing malachite green (0.03% w/v), ammonium molybdate (0.2% w/v) and Triton X-100 (0.05% v/v) in HCl (0.7 M) for 5 min at the optimal temperature.” left out
(§6) Enzyme activity was measured as described above in the presence of 100 µM of compounds and the percentage of inhibition was calculated in reference to untreated enzyme. […]

LdGDP-MP = LdGDP-MP (Leishmania donovani, UniProt E9BG32); experiment: biochemical; conditions: Man-1-P 10-100 µM, GTP 100 µM
Procedure: as §1, with “The reaction was initiated by the addition of GDP-MP, and was stopped after adding 100 µl of revelation buffer containing malachite green (0.03% w/v), ammonium molybdate (0.2% w/v) and Triton X-100 (0.05% v/v) in HCl (0.7 M) for 5 min at the optimal temperature.” left out
as §6

L. major GDP-MP = test system: L. major GDP-MP; design: method as in PMID 20160053; conditions: high throughput screening; cited from earlier work
[11] = test system: L. major intramacrophage amastigotes; design: method as in PMID 20160053; conditions: cited from earlier work
[12] = Leishmania donovani, RAW264.7, 48 h
[13] = Leishmania mexicana, RAW264.7, 48 h

T1 sequence (Q9Y5P6 whole entry): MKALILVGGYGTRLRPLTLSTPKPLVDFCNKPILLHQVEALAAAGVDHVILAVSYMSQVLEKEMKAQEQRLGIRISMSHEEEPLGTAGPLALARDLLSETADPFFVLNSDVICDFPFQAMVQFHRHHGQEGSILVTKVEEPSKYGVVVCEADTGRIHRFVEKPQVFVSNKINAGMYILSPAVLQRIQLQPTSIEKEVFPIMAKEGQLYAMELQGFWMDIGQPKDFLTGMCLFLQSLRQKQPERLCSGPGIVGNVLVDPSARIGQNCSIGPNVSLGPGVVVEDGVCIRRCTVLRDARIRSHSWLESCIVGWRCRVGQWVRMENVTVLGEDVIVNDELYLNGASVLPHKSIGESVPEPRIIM
LmGDP-MP, sequence (E9AW11 entry or part of it): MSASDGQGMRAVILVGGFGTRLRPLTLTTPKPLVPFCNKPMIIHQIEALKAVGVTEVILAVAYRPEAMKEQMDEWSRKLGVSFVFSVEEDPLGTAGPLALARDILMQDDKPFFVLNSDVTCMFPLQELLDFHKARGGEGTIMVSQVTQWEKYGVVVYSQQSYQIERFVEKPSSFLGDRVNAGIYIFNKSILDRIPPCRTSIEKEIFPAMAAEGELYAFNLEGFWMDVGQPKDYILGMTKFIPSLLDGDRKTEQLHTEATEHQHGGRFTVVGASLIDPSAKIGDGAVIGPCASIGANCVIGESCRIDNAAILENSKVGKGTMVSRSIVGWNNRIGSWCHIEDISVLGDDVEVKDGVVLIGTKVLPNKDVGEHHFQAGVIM
LdGDP-MP, sequence (E9BG32 entry or part of it): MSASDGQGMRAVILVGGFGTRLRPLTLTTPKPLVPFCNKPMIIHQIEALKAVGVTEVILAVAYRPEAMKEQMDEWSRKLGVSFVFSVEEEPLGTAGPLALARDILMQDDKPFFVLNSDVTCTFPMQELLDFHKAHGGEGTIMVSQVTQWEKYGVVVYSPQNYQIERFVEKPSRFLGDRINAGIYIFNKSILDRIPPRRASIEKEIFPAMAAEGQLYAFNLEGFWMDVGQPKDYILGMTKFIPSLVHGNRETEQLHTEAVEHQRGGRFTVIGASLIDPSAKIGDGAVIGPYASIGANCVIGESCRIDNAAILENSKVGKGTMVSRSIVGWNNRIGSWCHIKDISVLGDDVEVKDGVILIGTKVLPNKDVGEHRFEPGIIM

| SMILES | IC50 ([1]; Leishmania donovani, 72 h) [µM] | IC50 ([2]; Leishmania mexicana, 72 h) [µM] | IC50 [3, 12] [µM] | Selectivity index (CC50/IC50) L. donovani BMDM [4] | IC50 [4] [µM] | Selectivity index (CC50/IC50) L. mexicana BMDM [5] | IC50 [5] [µM] | Selectivity index (CC50/IC50) L. mexicana RAW264.7 macrophages [6] | IC50 [6, 13] [µM] | CC50 at 48 h (Cytotoxicity (resazurin) [7]) [µM] | CC50 at 48 h (Cytotoxicity (resazurin) [8]) [µM] | inhibition of inorganic pyrophosphatase [9] [%] | enzyme inhibition on a leishmanial GDP-MP [10] | further results |
| --- | --- | --- | --- | --- | --- | --- | --- | --- | --- | --- | --- | --- | --- | --- |
| O=C(NCc1ccccc1)c1ccc2nc(-c3ccccc3)c(-c3ccccc3)nc2c1 [compound 46] | > 100 | 7.69 ± 0.56 | > 100 | 1.0 | 12.5 ± 0.93 | 0.8 | 15.7 ± 3.48 | >8.5 | 11.7 ± 1.13 | > 100 | 13.1 ± 1.67 | < 5 | above 50% | Ki (LmGDP-MP): 25.6 ± 3.46 µM |
| O=c1[nH]cnc2c1ncn2[C@@H]1O[C@H](COP(=O)(O)OP(=O)(O)OP(=O)(O)O)[C@@H](O)[C@H]1O [ITP] |  |  |  |  |  |  |  |  |  |  |  |  |  | LmGDP-MP activity with substrate analogue compared to GTP (LmGDP-MP; NTP at 100 µM): 22–24%; hGDP-MP activity with substrate analogue compared to GTP (hGDP-MP; NTP at 100 µM): 22–24% and 24% |
| CC(C)(C)c1ccc(CN2CCN(c3ccnc4cc(Cl)ccc34)CC2)cc1 [compound 100, reference compound] | 30 to 50 | 30 to 50 | 20 to 27.5 | 4.2 | 12.2 ± 4.74 | 4.3 | 12.1 ± 1.27 | 2.3 | 20 to 27.5 | 62.1 ± 7.39 | 51.4 ± 3.45 | < 5 | above 50% | Ki (LdGDP-MP): 61.8 ± 16.3 µM; Ki (hGDP-MP; Man-1-P 10-100 µM, GTP 100 µM): 19.7 µM and ~20 µM; IC50 [1]: 30.7 ± 6.62 µM; IC50 [2]: 49.25 ± 0.26 µM; IC50 [3]: 19.5 ± 4.53 µM; Selectivity index (CC50/IC50) L. donovani RAW264.7 macrophages ([3]; CC50 RAW264.7 / IC50 infected RAW264.7): 3.2; IC50 [6]: 27.5 ± 2.23 µM; IC50 (L. major GDP-MP): 0.58 µM; IC50 [11]: 21.9 µM |
| Nc1nc2c(ncn2[C@@H]2O[C@H](COP(=O)(O)OP(=O)(O)OP(=O)(O)O)[C@@H](O)[C@H]2O)c(=O)[nH]1 [GTP] |  |  |  |  |  |  |  |  |  |  |  |  |  | Km (LmGDP-MP; other substrate held constant at 80 µM, read-out: Km (µM) ± SD of LmGDP-MP): 7.67 ± 2.28 µM |
